Results taken from PMC6248945, “Antibacterial properties of the pituitary adenylate cyclase-activating polypeptide: A new human antimicrobial peptide” (PLoS ONE, 2018).
≈ marks a conversion by molar mass, not a printed value. Where two headings read alike, the source gives them in different places. Where a SMILES comes first, the peptide text is derived from it.

Key:
[1] = system: Escherichia coli ATCC25922; conditions: ATCC25922, 20 h
[2] = system: Pseudomonas fluorescens (MF37); conditions: 20 h
[3] = system: Pseudomonas putida (KT2440); conditions: 20 h
DPP-IV = system: DPP-IV; design: method as in PMID 18353507; conditions: cited from earlier work
[4] = system: Serratia marcescens (ATCC14756); conditions: ATCC14756, 20 h
[5] = system: Pseudomonas aeruginosa (ATCC33350-Sero-2); conditions: ATCC33350, 20 h
Bacillus subtilis (PY79) = conditions: PY79, 20 h
[6] = system: Burkholderia cenocepacia (K56-2); conditions: 20 h
Escherichia coli (JM109) = test: MIC, CLSI microdilution; assay type: cell-based; conditions: MHB, 37 °C, 20h, OD read-out, at least triplicate
Protocol: Assays were performed according to the CLSI microdilution method. Briefly, the bacterial strains were inoculated and allowed to reach an OD600 of 0.08–0.13 prior to dilution to 10^6 CFU/mL in Mueller-Hinton broth (MHB). A bacterial suspension (50 μL) was then added to each well of a 96-well microplate containing serially diluted peptide solutions (50 μL in MHB) and incubated at 37 °C for 20h. A well containing sterilized medium was used as a sterility control and another well containing no added peptide served as a growth control.

[7] = system: Staphylococcus aureus (ATCC6538#P); conditions: ATCC6538, 20 h
[8] = system: Pseudomonas aeruginosa (PA14); conditions: PA14, 20 h
[9] = system: Escherichia coli (O157 :H7); conditions: CLSI microdilution, MHB, 37 °C, 20h, OD read-out; at least triplicate
[10] = system: Actinobacillus pleuropneumoniae (4074); conditions: 20 h
[11] = system: Burkholderia thailendensis (ATCC700388); conditions: CLSI microdilution, MHB, 37 °C, 20h, OD read-out; at least triplicate
[12] = system: Bacillus amyloliquefaciens (LMG22478); conditions: LMG22478, 20 h
[13] = system: Burkholderia cenocepacia (LMG18829); conditions: LMG18829, 20 h
[14] = system: Burkholderia cenocepacia (J2315); conditions: 20 h
[15] = system: Bacillus circulans (LSPQ3543); conditions: 20 h
[16] = system: Burkholderia cenocepacia (CEP0511 Gvar3b); conditions: CLSI microdilution, MHB, 37 °C, 20h, OD read-out; at least triplicate
[17] = system: Burkholderia cenocepacia (LMG19240); conditions: CLSI microdilution, MHB, 37 °C, 20h, OD read-out; at least triplicate
[18] = system: Staphylococcus aureus (Newman); conditions: 20 h
[19] = relative to PACAP38; cited from earlier work
[20] = system: Bacillus cereus (ATCC11778); conditions: ATCC11778, 20 h
Bacillus velezensis = conditions: 20 h

Row | Structure (SMILES) | MIC, Escherichia coli ATCC25922 [1] [µg/mL] | MIC, Pseudomonas fluorescens (MF37) [2] [µg/mL] | MIC, Pseudomonas putida (KT2440) [3] [µg/mL] | Metabolic stability against DPP-IV (DPP-IV) | MIC, Serratia marcescens (ATCC14756) [4] [µg/mL] | MIC, Pseudomonas aeruginosa (ATCC33350-Sero-2) [5] [µg/mL] | MIC, Bacillus subtilis (PY79) (Bacillus subtilis (PY79)) [µg/mL] | MIC, Burkholderia cenocepacia (K56-2) [6] [µg/mL] | MIC, Escherichia coli (JM109) (Escherichia coli (JM109)) [µg/mL] | MIC, Staphylococcus aureus (ATCC6538#P) [7] [µg/mL] | MIC, Pseudomonas aeruginosa (PA14) [8] [µg/mL] | MIC, Escherichia coli (O157 :H7) [9] [µg/mL] | MIC, Actinobacillus pleuropneumoniae [10] [µg/mL] | MIC, Burkholderia thailendensis (ATCC700388) [11] [µg/mL] | MIC, Bacillus amyloliquefaciens [12] [µg/mL] | MIC, Burkholderia cenocepacia (LMG18829) [13] [µg/mL] | MIC, Burkholderia cenocepacia (J2315) [14] [µg/mL] | MIC, Bacillus circulans (LSPQ3543) [15] [µg/mL] | MIC, Burkholderia cenocepacia (CEP0511 Gvar3b) [16] [µg/mL] | MIC, Burkholderia cenocepacia (LMG19240) [17] [µg/mL] | further results
1 | CCCCCC(=O)N[C@@H](Cc1c[nH]cn1)C(=O)N[C@@H](CO)C(=O)N[C@@H](CC(=O)O)C(=O)NCC(=O)N[C@H](C(=O)N[C@@H](Cc1ccccc1)C(=O)N[C@H](C(=O)N[C@@H](CC(=O)O)C(=O)N[C@@H](CO)C(=O)N[C@@H](Cc1ccc(O)cc1)C(=O)N[C@@H](CO)C(=O)N[C@@H](CCCNC(=N)N)C(=O)N[C@@H](Cc1ccc(O)cc1)C(=O)N[C@@H](CCCNC(=N)N)C(=O)N[C@@H](CCCCN)C(=O)N[C@@H](CCC(N)=O)C(=O)N[C@@H](CCSC)C(=O)N[C@@H](C)C(=O)N[C@H](C(=O)N[C@@H](CCCCN)C(=O)N[C@@H](CCCCN)C(=O)N[C@@H](Cc1ccc(O)cc1)C(=O)N[C@@H](CC(C)C)C(=O)N[C@@H](C)C(=O)N[C@@H](C)C(=O)N[C@H](C(=O)N[C@@H](CC(C)C)C(=O)NCC(=O)N[C@@H](CCCCN)C(=O)N[C@@H](CCCNC(=N)N)C(=O)N[C@@H](Cc1ccc(O)cc1)C(=O)N[C@@H](CCCCN)C(=O)N[C@@H](CCC(N)=O)C(=O)N[C@@H](CCCNC(=N)N)C(=O)N[C@H](C(=O)N[C@@H](CCCCN)C(=O)N[C@@H](CC(N)=O)C(=O)N[C@@H](CCCCN)C(N)=O)C(C)C)C(C)C)C(C)C)[C@@H](C)O)[C@@H](C)CC [compound 2, N-hexanoyl-PACAP38] | >200 | >200 | 77 (≈ 16.6 µM) | improved metabolic stability | >200 | >200 | 12 (≈ 2.59 µM) | >200 | 116 (≈ 25 µM) | >200 | >200 | >200 | 232 (≈ 50.1 µM) | >200 | 26 (≈ 5.61 µM) | >200 | 10 (≈ 2.16 µM) | 58 (≈ 12.5 µM) | >200 | >200 | MIC, Staphylococcus aureus (Newman) [18]: >200 µg/mL; Metabolic stability in human plasma [19]: improved metabolic stability; MIC, Bacillus cereus (ATCC11778) [20]: >200 µg/mL; MIC, Bacillus velezensis (Bacillus velezensis): 87 µg/mL (≈ 18.8 µM); MIC, Bacillus subtilis (2597) (Bacillus subtilis (2597); 2597, 20 h): 154 µg/mL (≈ 33.2 µM)
2 | CC[C@H](C)[C@H](NC(=O)CNC(=O)[C@H](CC(=O)O)NC(=O)[C@H](CO)NC(=O)[C@@H](N)Cc1c[nH]cn1)C(=O)N[C@@H](Cc1ccccc1)C(=O)N[C@H](C(=O)N[C@@H](CC(=O)O)C(=O)N[C@@H](CO)C(=O)N[C@@H](Cc1ccc(O)cc1)C(=O)N[C@@H](CO)C(=O)N[C@@H](CCCNC(=N)N)C(=O)N[C@@H](Cc1ccc(O)cc1)C(=O)N[C@@H](CCCNC(=N)N)C(=O)N[C@@H](CCCCN)C(=O)N[C@@H](CCC(N)=O)C(=O)N[C@@H](CCSC)C(=O)N[C@@H](C)C(=O)N[C@H](C(=O)N[C@@H](C)C(=O)N[C@@H](CCCCN)C(=O)N[C@@H](Cc1ccc(O)cc1)C(=O)N[C@@H](CC(C)C)C(=O)N[C@@H](C)C(=O)N[C@@H](C)C(=O)N[C@H](C(=O)N[C@@H](CC(C)C)C(=O)NCC(=O)N[C@@H](CCCCN)C(=O)N[C@@H](CCCNC(=N)N)C(=O)N[C@@H](Cc1ccc(O)cc1)C(=O)N[C@@H](CCCCN)C(=O)N[C@@H](CCC(N)=O)C(=O)N[C@@H](CCCNC(=N)N)C(=O)N[C@H](C(=O)N[C@@H](CCCCN)C(=O)N[C@@H](CC(N)=O)C(=O)N[C@@H](CCCCN)C(N)=O)C(C)C)C(C)C)C(C)C)[C@@H](C)O [compound 4, [Ala^20]PACAP38] (H-HSDGIFTDSYSRYRKQMAVAKYLAAVLGKRYKQRVKNK-NH2) | >200 | 112 (≈ 25 µM) | 56 (≈ 12.5 µM) | improved metabolic stability | >200 | >200 | 3 (≈ 0.67 µM) | >200 | 28 (≈ 6.25 µM) | >200 | 112 (≈ 25 µM) | 168 (≈ 37.5 µM) | >200 | >200 | 7 (≈ 1.56 µM) | >200 | 5 (≈ 1.12 µM) | 47 (≈ 10.5 µM) | >200 | >200 | MIC, Staphylococcus aureus (Newman) [18]: >200 µg/mL; Metabolic stability in human plasma [19]: improved metabolic stability; MIC, Bacillus cereus (ATCC11778) [20]: >200 µg/mL; MIC, Bacillus velezensis (Bacillus velezensis): 61 µg/mL (≈ 13.6 µM); MIC, Bacillus subtilis (2597) (Bacillus subtilis (2597); CLSI microdilution, MHB, 37 °C, 20h, OD read-out, at least triplicate): 168 µg/mL (≈ 37.5 µM)
